Results taken from patent publication US11236081B2, “Crystalline salts of corydalmine” (priority 2018, dated 2022).
Where two headings read alike, the source gives them in different places.

How the values were obtained:
[1] = Pharmacokinetic study: plasma concentration and plasma PK parameters after IV/PO dosing (LC-MS/MS, WinNonlin); assay type: in vivo, Male SD Rat; details: male SD rat, plasma; for half-life: read-out: T1/2, Mean (converted)
Procedure, shortened: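 Plasma levels after IV and oral dosing were measured by LC-MS/MS. Non-compartmental parameters came from concentration–time data: T1/2, C0, AUC, MRT, Cl and Vss for IV; T1/2, Cmax, Tmax, AUC, MRT and F% for PO. Values are given as mean and standard deviation.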

[2] = Solubility studies in water at 2 hours; assay type: physicochemical
[3] = male, Sprague-Dawley, rat, iv, 3 mg/kg, IV 3 mg/kg, individual rats, read-out: concentration in plasma
[4] = male, Sprague-Dawley, rat, iv, 3 mg/kg, IV 3 mg/kg, mean n=3, read-out: concentration in plasma, Mean
[5] = male, Sprague-Dawley, rat, po, 10 mg/kg, PO 10 mg/kg (equal to freebase), mean n=3, vehicle 20% HP-β-CD in water (POA, freebase) or water (salts), read-out: concentration in plasma, Mean
[6] = male, Sprague-Dawley, rat, po, 10 mg/kg, PO 10 mg/kg (equal to freebase), individual rats, vehicle 20% HP-β-CD in water (POA, freebase) or water (salts), read-out: concentration in plasma

SMILES: COc1cc2c(cc1OC)[C@@H]1Cc3ccc(O)c(OC)c3CN1CC2 [Compound (1), l-corydalmine]
- AUC—% Extrap_obs, Mean ([1]; PO 10 mg/kg (equal to freebase), mean n=3, vehicle 20% HP-β-CD in water (POA, freebase) or water (salts)): 19.8%
- AUC(0-inf) ([1]; male, SD, rat, iv, 3 mg/kg, IV 3 mg/kg, individual rats, read-out: AUCInf): 950 ng·h/mL
- AUC(0-t) ([1]; male, SD, rat, iv, 3 mg/kg, IV 3 mg/kg, individual rats, read-out: AUClast): 937 ng·h/mL
- MRT inf ([1]; male, SD, rat, iv, 3 mg/kg, IV 3 mg/kg, individual rats, read-out: MRTInf_obs): 1.09 h
- AUC(0-inf) ([1]; male, SD, rat, iv, 3 mg/kg, IV 3 mg/kg, mean n=3, read-out: AUCInf, Mean): 1020 ng·h/mL
- AUC(0-t) ([1]; male, SD, rat, iv, 3 mg/kg, IV 3 mg/kg, mean n=3, read-out: AUClast, Mean): 1000 ng·h/mL
- MRT inf ([1]; male, SD, rat, iv, 3 mg/kg, IV 3 mg/kg, mean n=3, read-out: MRTInf_obs, Mean): 1.23 h
- AUC(0-inf) ([1]; male, SD, rat, po, 10 mg/kg, PO 10 mg/kg (equal to freebase), individual rats, vehicle 20% HP-β-CD in water (POA, freebase) or water (salts), read-out: AUCInf): 1490 ng·h/mL
- AUC(0-t) ([1]; male, SD, rat, po, 10 mg/kg, PO 10 mg/kg (equal to freebase), individual rats, vehicle 20% HP-β-CD in water (POA, freebase) or water (salts), read-out: AUClast): 615 ng·h/mL
- Tmax ([1]; male, SD, rat, po, 10 mg/kg, PO 10 mg/kg (equal to freebase), individual rats, vehicle 20% HP-β-CD in water (POA, freebase) or water (salts), read-out: Tmax): 0.5 h
- AUC(0-inf) ([1]; male, SD, rat, po, 10 mg/kg, PO 10 mg/kg (equal to freebase), mean n=3, vehicle 20% HP-β-CD in water (POA, freebase) or water (salts), read-out: AUCInf, Mean): 1080 ng·h/mL
- AUC(0-t) ([1]; male, SD, rat, po, 10 mg/kg, PO 10 mg/kg (equal to freebase), mean n=3, vehicle 20% HP-β-CD in water (POA, freebase) or water (salts), read-out: AUClast, Mean): 788 ng·h/mL
- Cmax ([1]; male, SD, rat, po, 10 mg/kg, PO 10 mg/kg (equal to freebase), mean n=3, vehicle 20% HP-β-CD in water (POA, freebase) or water (salts), read-out: Cmax, Mean): 202 ng/mL
- MRT inf ([1]; male, SD, rat, po, 10 mg/kg, PO 10 mg/kg (equal to freebase), mean n=3, vehicle 20% HP-β-CD in water (POA, freebase) or water (salts), read-out: MRTInf_obs, Mean): 7.84 h
- half-life ([1]; male, SD, rat, po, 10 mg/kg, PO 10 mg/kg (equal to freebase), mean n=3, vehicle 20% HP-β-CD in water (POA, freebase) or water (salts)): 4.9 h
- Tmax ([1]; male, SD, rat, po, 10 mg/kg, PO 10 mg/kg (equal to freebase), mean n=3, vehicle 20% HP-β-CD in water (POA, freebase) or water (salts), read-out: Tmax, Mean): 0.417 h
- concentration at 0.083 h [1, 3]: 1420 ng/mL
- concentration at 0.083 h [1, 4]: 1480 ng/mL
- concentration at 0.25 h [1, 3]: 974 ng/mL
- concentration at 0.25 h [1, 4]: 976 ng/mL
- concentration at 0.5 h [1, 3]: 401 ng/mL
- concentration at 0.5 h [1, 4]: 478 ng/mL
- concentration at 1 h [1, 3]: 192 ng/mL
- concentration at 1 h [1, 4]: 191 ng/mL
- concentration at 2 h [1, 3]: 63.3 ng/mL
- concentration at 2 h [1, 4]: 68.4 ng/mL
- concentration at 4 h [1, 4]: 30.6 ng/mL
- concentration at 8 h [1, 4]: 6.38 ng/mL
- concentration at 24 h [1, 3]: 0.5 ng/mL
- C0 ([1]; male, Sprague-Dawley, rat, iv, 3 mg/kg, IV 3 mg/kg, individual rats, read-out: C0): 1710 ng/mL
- half-life ([1]; male, Sprague-Dawley, rat, iv, 3 mg/kg, IV 3 mg/kg, mean n=3): 2.73 h
- concentration at 0.25 h [1, 5]: 191 ng/mL
- concentration at 0.5 h [1, 5]: 197 ng/mL
- concentration at 1 h [1, 6]: 109 ng/mL
- concentration at 1 h [1, 5]: 125 ng/mL
- concentration at 2 h [1, 6]: 75.1 ng/mL
- concentration at 2 h [1, 5]: 66.7 ng/mL
- concentration at 4 h [1, 6]: 66.3 ng/mL
- concentration at 4 h [1, 5]: 51.2 ng/mL
- concentration at 8 h [1, 6]: 68.7 ng/mL
- concentration at 8 h [1, 5]: 49.9 ng/mL
- concentration at 24 h ([1]; male, Sprague-Dawley, rat, po, 10 mg/kg, PO 10 mg/kg, mean (one rat BLOQ), vehicle 20% HP-β-CD in water (POA), read-out: concentration in plasma, Mean): 0.574 ng/mL
- solubility at 2 h [2]: < 1000 µg/mL
